From patent US11124553B2, “TDP-43 mitochondrial localization inhibitor for the treatment of neurogenerative disease” (Case Western Reserve University, priority 2016, dated 2021)
Read-outs that look alike come from different tables or passages of the source. Ends that are not written are not given here.

Columns and labels:
[1] = 1.5 mg/kg/day s.c. infusion for 6 weeks; data not shown
[2] = continuous subcutaneous infusion
Experimental: Mice surgery/procedures were performed according to the NIH guidelines and were approved by the Institutional Animal Care and Use Committee (IACUC) at Case Western Reserve University. C57BL/6 non-transgenic wild type mice (NTG mice), Prnp-TARDBP mice (TDP-43 WT Tg mice) and Prnp-TARDBP*A315T mice (TDP-43 A315T Tg mice) were purchased from the Jackson Laboratory (Bar Harbor, Me.). Mice were infused subcutaneously with mini-osmotic pumps (Alzet Model 2004, Cupertino, Calif.; flow rate of 0.25 μl/hour). One day before implantation, mini-osmotic pumps were filled with 200 μl PBS containing cPM or PM1 peptides (0.5 mg/kg/Day) followed by pump incubation in PBS at 37 overnight according to the manufacturer's instructions. For surgery, male mice were anesthetized with avertin. A small incision was made at the back of mouse and mini-osmotic pump were implanted subcutaneously. After treatment, mice were deeply anesthetized with avertin and transcardially perfused with cold PBS and spinal cord and brain tissues were collected followed by fractionation, western blot or immunostaining.

cells = conditions: data not shown

Sequence | reaching the central nervous system [1] | detection in mitochondrial compartments [2] | reaching the central nervous system [2] | toxic effect on cells (cells)
YGRKKRRQRRRAQFPGACGL [PM1] | reached the central nervous system | detected in all mitochondrial compartments | reached the central nervous system | –
YGRKKRRQRRRSKGFGFVRF [PM3] | – | – | – | mild toxic effect
